Data: patent publication US20100080860A1, “Application of short-chain monocarboxylic acids for crop protection” (UNIVERSITAT JAUME I, priority 2005, published 2010)
Converted amounts (≈) assume the structure as drawn. “And” between values parts separate entries of the source, which are not always exact repeats. Identical values can stand only once.

Columns and labels:
B. cinerea [1] = test: Spray treatment of tomato plants with hexanoic acid potassium salt, B. cinerea inoculation; format: in vivo, Botrytis cinerea; settings: for % inhibition of infection versus control: 72 h
Procedure: Hexanoic acid potassium salt was provided by preparing a mole-to-mole solution of hexanoic acid with K2CO3. A concentrated solution was prepared, adjusted to pH 6, and then dilutions were performed in order to provide in-use concentrations, namely, 20 mM, 10 mM, 6 mM and 3 mM.
The plants were treated with the formed salt by spray application and then left to dry for 30 minutes. Afterwards, treated leaves, which were previously incubated for 2 h in Gamborg medium supplemented with sucrose and phosphate, were inoculated with 5 μl of a suspension containing 10^6 spores/ml of B. cinerea, and then stored in a high-humidity chamber at 25° C. for 72 h.
The infection diameter was measured and, finally, the germination percentage was determined.

B. cinerea spores = test: Direct antimicrobial effect in vitro: spore germination, mycelium growth, MIC/MFC in PDB; format: cell-based, Botrytis cinerea
Procedure: Test mixture contained 4×10^6 conidia/ml PDB (potatodextrose broth, Difco, Detroit, Mich., USA). Treatments (hexanoic acid and heptanoic acid) were added to PDB from stock solutions in order to obtain the different concentrations to be used (0.06 to 30 mM). Medium pH was adjusted to 3.6-5.5 using HCl or NaOH. One ml of each mixture was dispensed into sterile 24-well microplates and then incubated at 20° C. under gentle stirring. Percentage of germinated spores was calculated after 20 h incubation by staining with 0.1% lacto-fucshin (1:1) followed by microscopic observation of 100 spores. Spores were considered to be germinated when the length of germ tube was equal to or greater than spore. For assessment of efficacy in long-term treatments, test culture was left for a 7-day incubation period under previously described conditions, and mycelium development was assessed as follows: 3 ml of each culture were vacuum-filtered through pre-weighed nitrocellulose filters (Millipore, ref. HAWP02500). The filters were dried at 85° C. until weight was constant at room temperature.
For measurement of treatment effects on mycelium growth, 9×10^6 spores were inoculated to a final volume of 150 ml PDB. After 20 h incubation, spores were examined for germination by microscopic analysis, then treatments were added, and pH was adjusted to 5.5. Cultures were incubated at 20° C. under gentle stirring. After 96 h, mycelium growth was measured by determining dry weight, as described herein. […] After MIC determination, minimum fungicidal concentration (MFC) was measured as follows. After 20 h incubation, an aliquot of the cultures, in which no growth had been detected, was taken, then washed three times and added to a fresh medium without added treatment. After 20 h incubation, under previously described conditions, the germination percentage was estimated. MFC is the minimum concentration of test compound at which microorganisms are not recovered.

Botrytis cinerea = test: Post-harvest treatment: combined inoculation of hexanoic acid and Botrytis cinerea spores into tomato fruits; format: in vivo; settings: combined inoculation with spores, preliminary studies
Procedure: Preliminary studies were also performed on the application of hexanoic acid for post-harvest treatment.

B. cinerea [2] = test: Hexanoic acid root application in hydroponic cultivation, protection of tomato plants against B. cinerea; format: in vivo, Botrytis cinerea; settings: control: water
Procedure: (§1) Experiments were performed with 4-week-old tomato plants (Cv. Ailsa Craig) in hydroponic cultivation. Before initiation of treatment, the plants were maintained in hydroponic cultivation for 1 week for habituation under such cultivation conditions. Treatment comprised the addition of hexanoic acid to a nutrient solution (Hoagland solution) at the following concentrations: 0.06 mM, 0.6 mM, 3 mM, 6 mM, 16 mM and 20 mM, pH was adjusted to 6. After 48 hours of treatment, the leaflets of the third and fourth true leaves were inoculated with 5 μl of a suspension containing 10^6 conidia B. cinerea/ml. Spores had previously been incubated in Gamborg medium (Duchefa Biochemie, The Netherlands) supplemented with sucrose and phosphate, over a period of 2 h. Spores were inoculated in this medium. For each treatment, 10 plants were used, which were kept under humidity- and temperature-controlled conditions (80% RH, 21° C.). Sampling was performed at 48, 72, 96 and 120 hours after inoculation.

B. cinerea [3] = test: Hexanoic acid root application in soil cultivation, protection of tomato plants against B. cinerea; format: in vivo, Botrytis cinerea; settings: control: water
Procedure: as §1
Plants were cultivated in soil and the solutions of hexanoic acid, at different concentrations, were prepared and applied in the same manner as that described above. Control was water.

B. cinerea [4] = test: Hexanoic acid root application in soil cultivation, protection of Arabidopsis plants against B. cinerea; format: in vivo, Botrytis cinerea
Procedure: (§2) Experiments were performed with 5-week-old Arabidopsis plants cultivated in soil. Two weeks after germination, the plants were transplanted into single pots and kept at a temperature of 20° C. day/18° C. night and 8.5 h light cycle for 24 h and 60% relative humidity (RH).
(§3) The plants were treated with different concentrations of hexanoic acid (0.6 mM, 0.8 mM and 1 mM) and inoculated with 6 μl of 2.5×10^4 spores/mL Botrytis cinerea and 2×10^6 spores/mL Alternaria brassicicola.
(§4) Sampling was performed at 48, 72, 96 and 120 hours after inoculation.

B. cinerea [5] = test: Spray application of hexanoic acid on tomato plants against B. cinerea; format: in vivo, Botrytis cinerea; settings: for % inhibition of invention versus control: spray application, tomato plants
A. Brassicicola = test: Hexanoic acid root application in soil cultivation, protection of Arabidopsis plants against A. Brassicicola; format: in vivo, Alternaria brassicicola; settings: 0.8 mM
Procedure: as §2, §3, §4

Pseudomonas syringe = test: Induced resistance in Arabidopsis thaliana against Pseudomonas syringe; format: in vivo
Peronospora parasitica = test: Induced resistance in Arabidopsis thaliana against Peronospora parasitica; format: in vivo

CCCCCC(=O)[O-].[K+] [Hexanoic acid potassium salt]
% inhibition of infection versus control (B. cinerea [1]; 6 mM): 52.1% | % inhibition of infection versus control (B. cinerea [1]; 10 mM): 61.3% | % inhibition of infection versus control (B. cinerea [1]; 20 mM, listed as potassium salt, potassium salt): 80% | % inhibition of infection versus control (B. cinerea [1]; 20 mM, potassium salt): 80.3% | % inhibition of infection versus control (B. cinerea [1]; 3M): 49.8% | inhibition at 3000 µM (B. cinerea [1]; Botrytis cinerea, 3 mM, read-out: inhibition of fungal infection): ~50%

CCCCCCC(=O)O [heptanoic acid]
concentration from which spore germination is significantly decreased / inhibited (B. cinerea spores; B. cinerea spores in vitro): ≥ 6 mM | effect on spore germination compared with hexanoic acid (B. cinerea spores; B. cinerea spores in vitro): the same at the same concentration range | germ tube development (B. cinerea spores; B. cinerea spores in vitro): entirely prevents germ tube development

CCCCCC(=O)O [hexanoic acid]
concentration from which spore germination is significantly decreased / inhibited (B. cinerea spores; B. cinerea spores in vitro): ≥ 3 mM | concentration that entirely inhibits germination (B. cinerea spores; B. cinerea spores in vitro): 16 mM | MFC (B. cinerea spores; Botrytis cinerea, 20 h, read-out: minimum fungicidal concentration (MFC)): 16 mM (≈ 1860 µg/mL) | reversibility of the inhibitor effect after spore washing (B. cinerea spores; spores treated at MFC, treatment removed by washing): irreversible fungicidal effect | mycelium development in already germinated spores (B. cinerea spores; treatment added after germination): inhibits mycelium development | infection rate of treated fruits (Botrytis cinerea): significant decrease in the infection rate | % inhibition of infection versus control (B. cinerea [2]; 0.06 mM): 35.57% | % inhibition of infection versus control (B. cinerea [2]; 0.6 mM): 48.90% | % inhibition of infection versus control (B. cinerea [2]; 3 mM): 64.06% | % inhibition of infection versus control (B. cinerea [2]; 6 mM): 61.98% | % inhibition of infection versus control (B. cinerea [2]; 16 mM): 63.52% | % inhibition of infection versus control (B. cinerea [2]; 20 mM): 53.60% | % inhibition of infection versus control (B. cinerea [3]; 0.06 mM): 60.15% | % inhibition of infection versus control (B. cinerea [3]; 0.6 mM): 49.77% | % inhibition of infection versus control (B. cinerea [4]; 0.6 mM): 10% | % inhibition of infection versus control (B. cinerea [4]; 0.8 mM): 28% | % inhibition of infection versus control (B. cinerea [4]; 1 mM): 38% | % inhibition of invention versus control (B. cinerea [5]; 3 mM): 7.63% | % inhibition of invention versus control (B. cinerea [5]; 16 mM): 67% and 66.85% | % inhibition of invention versus control (B. cinerea [5]; 20 mM): 81% and 81.47% | curative effect in plants already inoculated (B. cinerea [5]; plants already inoculated with B. cinerea, preliminary results): restrains the progress of necrosis | % inhibition of infection versus control (A. Brassicicola; time after inoculation 48): 54.5% | % inhibition of infection versus control (A. Brassicicola; time after inoculation 72): 40.5% | % inhibition of infection versus control (A. Brassicicola; time after inoculation 96): 6.3% | induced resistance (Pseudomonas syringe): induced resistance | induced resistance (Peronospora parasitica): induced resistance
